Experimental data published in the NIST ThermoML archive (doi:10.1016/j.jct.2015.08.010).
Numbers after ± are expanded uncertainties.

Key:
[1] = 100 kPa, Liquid; for viscosity: Falling or rolling sphere viscometry; for mass density: Vibrating tube method
[2] = xn = mol fraction of the nth substance listed; conditions: 100 kPa, Liquid, Falling or rolling sphere viscometry, x2 = 0

Structure (SMILES)	viscosity ([1]; 293.15 K)	mass density ([1]; 293.15 K)	viscosity ([1]; 298.15 K)	mass density ([1]; 298.15 K)	viscosity ([1]; 303.15 K)	mass density ([1]; 303.15 K)	viscosity ([1]; 308.15 K)	mass density ([1]; 308.15 K)	viscosity ([1]; 313.15 K)	mass density ([1]; 313.15 K)	viscosity ([2]; 293.15 K)	viscosity ([2]; 298.15 K)	viscosity ([2]; 303.15 K)	viscosity ([2]; 308.15 K)	viscosity ([2]; 313.15 K)
C1CCC2=NCCC[NH+]2CC1.c1c[n-]cn1 [1,8-diazabicyclo[5.4.0]undec-7-enium imidazolide]	47.82 ± 1.2 mPa·s	1053.63 ± 4.3 kg/m3	34.94 ± 0.85 mPa·s	1049.78 ± 4.3 kg/m3	26.36 ± 0.64 mPa·s	1045.94 ± 4.3 kg/m3	20.5 ± 0.49 mPa·s	1042.11 ± 4.2 kg/m3	16.28 ± 0.39 mPa·s	1038.28 ± 4.2 kg/m3					
O [water]	1.002 ± 0.021 mPa·s		0.89 ± 0.02 mPa·s		0.797 ± 0.017 mPa·s		0.718 ± 0.015 mPa·s		0.651 ± 0.014 mPa·s						
O [water] + C1CCC2=NCCC[NH+]2CC1.c1c[n-]cn1											1.002 ± 0.021 mPa·s	0.89 ± 0.02 mPa·s	0.797 ± 0.017 mPa·s	0.718 ± 0.015 mPa·s	0.651 ± 0.014 mPa·s
